Experiment [1] has as its target T1, human 5-HT6 receptor (Homo sapiens, UniProt P50406).
T1 construct: expressed in transfected cells; host or cells: HEK293 (G-418 selected), membrane preparation
Kind of experiment: 5-HT6 receptor binding assay ([3H]-LSD, SPA, membranes of transfected HEK293 cells).

Experiment [2] addresses T1, human 5-HT6 receptor. Kind of experiment: 5-HT6 intrinsic activity assay (inhibition of 5-HT induced increase in cAMP). Format: cell-based. The settings on record: read-out: Antagonist potency at the h5-HT6 receptor, IC50,corr. The procedure:
(b) 5-HT6 Intrinsic Activity Assay
Briefly, HEK293/5-HT6 cells were seeded in polylysine coated 96-well plates at a density of 25,000/well and grown in DMEM (Dulbecco's Modified Eagle Medium) (without phenol-red) containing 5% dialyzed Foetal Bovine Serum for 48 h at 37° C. in a 5% CO2 incubator. The medium was then aspirated and replaced by 0.1 ml assay medium (Hanks Balance Salt Solution containing 20 mM HEPES, 1.5 mM isobutylmethylxanthine and 1 mg/ml bovine serum albumin). After addition of test substances, 50 μl dissolved in assay medium, the cells were incubated for 10 min at +37° C. in a 5% CO2 incubator. The medium was again aspirated and the cAMP content was determined using a radioactive cAMP kit (Amersham Pharmacia Biotech, BIOTRAK RPA559).

The text below walks through data of patent US8138333B2, “Sulfonyl-indole derivatives” (Proximagen Limited, priority 2007, dated 2012).

Where a name gives a salt, the structure may show the parent alone. Read-outs that look alike come from different tables or passages of the source.

T1 sequence (P50406 whole entry): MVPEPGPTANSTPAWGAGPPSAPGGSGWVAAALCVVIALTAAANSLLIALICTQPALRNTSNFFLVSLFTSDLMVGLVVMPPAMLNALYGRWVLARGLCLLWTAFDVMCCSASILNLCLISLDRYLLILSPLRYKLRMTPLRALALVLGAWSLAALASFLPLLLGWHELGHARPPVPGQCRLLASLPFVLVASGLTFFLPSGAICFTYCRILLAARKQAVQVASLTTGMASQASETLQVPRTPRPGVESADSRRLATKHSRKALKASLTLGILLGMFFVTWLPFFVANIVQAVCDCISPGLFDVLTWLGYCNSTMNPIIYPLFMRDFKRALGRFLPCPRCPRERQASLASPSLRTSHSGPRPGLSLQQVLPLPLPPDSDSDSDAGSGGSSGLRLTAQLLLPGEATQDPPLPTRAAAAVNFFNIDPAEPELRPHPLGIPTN

As for `CN1CCc2cccc3c2c(cn3S(=O)(=O)c2ccccc2)C1` [Example 13, 4-Methyl-1-(phenylsulfonyl)-3,4,5,6-tetrahydro-1H-azepino[3,4,5-cd]indole hydrochloride], in experiment [1], the affinity corresponds to a Ki of 0.006 µM. Turning to `O=S(=O)(c1ccccc1)n1cc2c3c(cccc31)CN(Cc1ncc[nH]1)C2` [Example 3, 4-(1H-Imidazol-2-ylmethyl)-1-(phenylsulfonyl)-1,3,4,5-tetrahydropyrrolo[4,3,2-de]isoquinoline bis(trifluoroacetate)], the IC50 (usually the concentration that inhibits the measured activity by half) in experiment [2] was determined as 0.028 µM. As for `NCCc1c[nH]c2ccc(O)cc12` [Example 5-HT, 5-hydroxytryptamine, reference compound], the Hill coefficient in experiment [1] (inter assay, over three experiments) is 0.94 (SD 0.09). Take `O=S(=O)(c1ccccc1)n1cc2c3c(cccc31)CNCC2` [Example 15, 1-(Phenylsulfonyl)-3,4,5,6-tetrahydro-1H-azepino[5,4,3-cd]indole]: the concentration for half-maximal inhibition (IC50) in experiment [2] was 0.008 µM. As to `CCN1Cc2cccc3c2c(cn3S(=O)(=O)c2ccccc2)C1` [Example 5, 4-Ethyl-1-(phenylsulfonyl)-1,3,4,5-tetrahydropyrrolo[4,3,2-de] isoquinoline trifluoroacetate], the Ki – broadly, the equilibrium dissociation constant of an inhibitor or competing ligand from its target – in experiment [1] (read-out: Binding affinity (Ki) at the h5-HT6 receptor) came out at 0.021 µM.
